The NIST ThermoML archive (doi:10.1016/j.jct.2016.02.009)
± gives the expanded uncertainty stated by the source.

Test: molar heat capacity at constant pressure
Details: 101.33 kPa, Small (less than 1 g) adiabatic calorimetry

CCCCCCCCCCn1cc[n+](C)c1.O=S(=O)([N-]S(=O)(=O)C(F)(F)F)C(F)(F)F
molar heat capacity at constant pressure [J/K/mol]
Details | Crystal 2 | Metastable crystal
142.54 K | – | 368.4 ± 1.9
144.48 K | 358.2 ± 1.8 | 372.5 ± 1.9
146.41 K | – | 376.6 ± 1.9
146.45 K | 361.5 ± 1.9 | –
148.35 K | – | 380.7 ± 2
148.41 K | 365 ± 1.9 | –
150 K | 367.5 ± 1.9 | 384.3 ± 1.9
150.28 K | – | 384.8 ± 2
150.38 K | 368.2 ± 1.9 | –
152.21 K | – | 389.1 ± 2
152.35 K | 371.7 ± 1.9 | –
154.14 K | – | 393.4 ± 2
154.32 K | 375 ± 1.9 | –
155.25 K | 376.4 ± 1.9 | –
156.07 K | – | 397.7 ± 2
157.33 K | 380.2 ± 1.9 | –
157.99 K | – | 402.2 ± 2.1
159.29 K | 383.4 ± 2 | –
159.91 K | – | 406.6 ± 2.1
160 K | 384.7 ± 1.9 | 406.8 ± 2.1
161.26 K | 387 ± 2 | –
161.83 K | – | 411 ± 2.1
163.22 K | 390.1 ± 2 | –
163.75 K | – | 415.7 ± 2.1
165.19 K | 393.6 ± 2 | –
165.66 K | – | 420.2 ± 2.1
167.15 K | 397.2 ± 2 | –
167.56 K | – | 425 ± 2.2
169.11 K | 400.7 ± 2 | –
169.47 K | – | 429.9 ± 2.2
170 K | 402.3 ± 2 | 431.2 ± 2.2
171.07 K | 404.1 ± 2.1 | –
171.37 K | – | 434.6 ± 2.2
173.03 K | 407.6 ± 2.1 | –
173.27 K | – | 440 ± 2.2
174.98 K | 411.2 ± 2.1 | –
175.16 K | – | 445.5 ± 2.3
176.93 K | 414.8 ± 2.1 | –
177.04 K | – | 451.4 ± 2.3
178.88 K | 418.4 ± 2.1 | –
178.92 K | – | 458.1 ± 2.3
180 K | 420.7 ± 2.2 | 462.6 ± 2.4
180.78 K | – | 466 ± 2.4
180.83 K | 422.1 ± 2.2 | –
182.64 K | – | 476.8 ± 2.4
182.78 K | 426 ± 2.2 | –
184.47 K | – | 489.9 ± 2.5
184.72 K | 430 ± 2.2 | –
186.29 K | – | 501.9 ± 2.5
186.66 K | 434 ± 2.2 | –
188.1 K | – | 507.1 ± 2.6
188.59 K | 438.2 ± 2.2 | –
189.9 K | – | 510.3 ± 2.6
190 K | 440.9 ± 2.3 | 510.3 ± 2.6
190.52 K | 442.2 ± 2.3 | –
191.71 K | – | 511.1 ± 2.6
192.45 K | 446.2 ± 2.3 | –
193.51 K | – | 514.8 ± 2.6
194.38 K | 450.4 ± 2.3 | –
195.31 K | – | 521.6 ± 2.6
196.3 K | 455.3 ± 2.3 | –
197.11 K | – | 529.9 ± 2.7
198.22 K | 460.2 ± 2.3 | –
198.89 K | – | 539.6 ± 2.7
200 K | 463.2 ± 2.4 | 546.2 ± 2.8
200.13 K | 465.1 ± 2.4 | –
200.65 K | – | 550 ± 2.8
202.1 K | 470.5 ± 2.4 | –
202.46 K | – | 568.9 ± 2.9
204.12 K | 476.2 ± 2.4 | –
204.28 K | – | 599.4 ± 3.1
206.02 K | – | 683.4 ± 3.6
206.13 K | 482 ± 2.4 | –
207.65 K | – | 752.9 ± 3.9
208.14 K | 487.2 ± 2.5 | –
209.38 K | – | 552.2 ± 3.1
210 K | 489.1 ± 2.5 | 513 ± 2.6
210.15 K | 491.5 ± 2.5 | –
211.31 K | – | 512.9 ± 2.6
212.15 K | 495.6 ± 2.5 | –
213.27 K | – | 512 ± 2.6
214.15 K | 500.9 ± 2.5 | –
215.24 K | – | 515.4 ± 2.6
216.13 K | 507 ± 2.6 | –
217.2 K | – | 523.2 ± 2.7
218.12 K | 513.6 ± 2.6 | –
219.17 K | – | 551.8 ± 3.2
220 K | 519.8 ± 2.6 | –
220.09 K | 520.6 ± 2.6 | –
221.12 K | – | 812.2 ± 4.9
222.05 K | 528.2 ± 2.7 | –
224 K | 536.2 ± 2.7 | –
225.95 K | 545.3 ± 2.8 | –
227.87 K | 555.4 ± 2.8 | –
229.79 K | 567 ± 2.9 | –
230 K | 569.2 ± 2.9 | –
231.68 K | 580.6 ± 2.9 | –
233.56 K | 594.7 ± 3 | –
235.42 K | 610.3 ± 3.1 | –
237.26 K | 624.9 ± 3.2 | –
